Our source for the Activity values is ChEMBL document CHEMBL5032490, “Neuroactive Type-A γ-Aminobutyric Acid Receptor Allosteric Modulator Steroids from the Hypobranchial Gland of Marine Mollusk, Conus geographus” (J Med Chem, 2021).

Active and inactive are the calls of the source.

For test [1], the system named is Neuron. Briefly: Effect on mouse GABA receptor expressed in mouse DRG neurons at 10 uM using cold thermosensors. The class given is tissue-based.
The test system of test [2] is Neuron. Kind of test: Effect on mouse GABA receptor expressed in mouse C-low-threshold mechanoreceptors DRG neurons at 10 uM. Format: tissue-based.
The subject of test [3] is Neuron. Briefly: Effect on mouse GABA receptor expressed in mouse peptidergic nociceptive DRG neurons at 10 uM. The class given is tissue-based.
Test [4] deals with Neuron. Kind of test: Effect on mouse GABA receptor expressed in mouse non-peptidergic nociceptive DRG neurons at 10 uM. The class given is tissue-based.
Test [5] can be described thus: Induction of cytosolic calcium ion concentration in mouse DRG neurons at 10 microg/ml measured after 1 hr by Fura2AM dye based fluorescence microscopic analysis. Format: functional, Neuron. To be noted: dose 10 µg/ml.
Test [6] in a line: Reduction in ATP-induced cytosolic calcium ion concentration in mouse DRG neurons at 10 microg/ml measured after 1 hr by Fura2AM dye based fluorescence microscopic analysis in response to ATP. Format: functional, Neuron. Also on record: scale not given: the % may be the effect or the level left. The conditions noted are these: dose 10 µg/ml.
The nature of test [7]: Induction of ATP-induced cytosolic calcium ion concentration in mouse DRG neurons assessed as neuron population at 10 microg/ml measured after 1 hr by Fura2AM dye based fluorescence microscopic. The class given is functional. To be noted: dose 10 µg/ml.
Test [8] in a line: (§1) Reduction in Kcl-induced cytosolic calcium ion concentration in mouse DRG neurons at 10 microg/ml measured after 1 hr by Fura2AM dye based fluorescence microscopic analysis in response to Kcl. Format: functional, Neuron. Also on record: scale not given: the % may be the effect or the level left. To be noted: dose 10 µg/ml.
Test [9] in a line: Induction of Kcl-induced cytosolic calcium ion concentration in mouse DRG neurons in response to Kcl at 10 microg/ml measured after 1 hr by Fura2AM dye based fluorescence microscopic analysis. To be noted: dose 10 µg/ml. Format: functional, Neuron.
Test [10] deals with Neuron. The description is as §1. The conditions noted are these: dose 10.0 µg/ml. Format: functional.
A short description of test [11]: Induction of cytosolic calcium ion concentration in mouse microglia cells at 10 uM measured after 1 hr by Fura2AM dye based fluorescence microscopic analysis. Format: functional.
Test [12] in a line: Induction of cytosolic calcium ion concentration in mouse non-peptidergic nociceptive DRG neuron at 10 uM measured after 1 hr by Fura2AM dye based fluorescence microscopic analysis. The class given is functional.
The nature of test [13]: Induction of cytosolic calcium ion concentration in mouse peptidergic nociceptive DRG neuron at 10 uM measured after 1 hr by Fura2AM dye based fluorescence microscopic analysis. The class given is functional.
Test [14] is described as follows: Reduction of ATP and Kcl-induced increase in cytosolic Ca2+ ion concentration mouse […] assessed as neuron population at 10 uM measured after 1 hr by Fura2AM dye based fluorescence microscopic analysis. Also on record: scale not given: the % may be the effect or the level left. Format: functional.
Test [15] is described as follows: Reduction of ATP and Kcl-induced increase in cytosolic Ca2+ ion concentration mouse peptidergic nociceptive DRG neuron assessed as neuron population at 10 uM measured after 1 hr by Fura2AM dye based fluorescence microscopic analysis. The class given is functional. Also on record: scale not given: the % may be the effect or the level left.
The nature of test [16]: Induction of ATP and Kcl-induced increase in cytosolic Ca2+ ion concentration mouse […] assessed as neuron population at 10 uM measured after 1 hr by Fura2AM dye based fluorescence microscopic analysis. The class given is functional.
A short description of test [17]: Induction of ATP and Kcl-induced increase in cytosolic Ca2+ ion concentration mouse non-peptidergic nociceptive DRG neuron assessed as neuron population at 10 uM measured after 1 hr by Fura2AM dye based fluorescence microscopic analysis. Format: functional.
A short description of test [18]: Induction of cytosolic calcium ion concentration in mouse DRG other neuron subtype at 10 uM measured after 1 hr by Fura2AM dye based fluorescence microscopic analysis. Format: functional.
Test [19] can be described thus: Reduction of ATP and Kcl-induced increase in cytosolic Ca2+ ion concentration mouse DRG other neuron subtype assessed as neuron population at 10 uM measured after 1 hr by Fura2AM dye based fluorescence microscopic analysis. The class given is functional. Also on record: scale not given: the % may be the effect or the level left.
A short description of test [20]: Reduction of ATP and Kcl-induced increase in cytosolic Ca2+ ion concentration mouse non-peptidergic nociceptive DRG neuron assessed as neuron population at 10 uM measured after 1 hr by Fura2AM dye based fluorescence microscopic analysis. The class given is functional. Also on record: scale not given: the % may be the effect or the level left.
Test [21] in a line: Induction of ATP and Kcl-induced increase in cytosolic Ca2+ ion concentration mouse DRG other neuron subtype assessed as neuron population at 10 uM measured after 1 hr by Fura2AM dye based fluorescence microscopic analysis. Format: functional.
A short description of test [22]: Induction of ATP and Kcl-induced increase in cytosolic Ca2+ ion concentration mouse peptidergic nociceptive DRG neuron assessed as neuron population at 10 uM measured after 1 hr by Fura2AM dye based fluorescence microscopic analysis. The class given is functional.

Regarding `CC(C)[C@@H](C)/C=C/[C@@H](C)[C@H]1CC[C@H]2C3=CC=C4C[C@@H](O)CC[C@]4(C)[C@H]3CC[C@]12C`, the result in the test with Neuron [1], in the test with Neuron [2], in the test with Neuron [3] and in the test with Neuron [4] was inactive.
As for `C[C@H](CCC(=O)C(C)(C)O)[C@H]1CC[C@H]2[C@@H]3C(=O)C=C4C=CCC[C@]4(C)[C@H]3CC[C@]12C`, the Activity in test [5] is recorded as 35%; in [6] it was 17%; in [7], 9%; in [8] it was 2%; in test [9], 22%.
Take `C[C@H](CC[C@@H](O)C(C)(C)O)[C@H]1CC[C@H]2[C@@H]3C(=O)C=C4C=CCC[C@]4(C)[C@H]3CC[C@]12C`: the Activity is listed as 3% in [5]; 3% in test [6]; 36% in test [7]; 4% in [8]; 38% in test [9].
As to `C[C@H](CC[C@@H](O)C(C)(C)O)[C@H]1CC[C@H]2[C@@H]3C(=O)C=C4C[C@H](O)CC[C@]4(C)[C@H]3CC[C@]12C`, the Activity in [5] stood at 19%; in test [6] it was 3%; in test [7] it was 33%; in test [9], 54%. Also, the result with Neuron [10] was inactive.
In the case of `CC(C)CCC[C@@H](C)[C@H]1CC[C@H]2[C@@H]3CC=C4C[C@@H](O)CC[C@]4(C)[C@H]3CC[C@]12C`, the result with Neuron [1], in the test with Neuron [2], in the test with Neuron [3] and in the test with Neuron [4] was inactive.
Turning to `C[C@H](CCC(=O)O)[C@H]1CC[C@H]2[C@@H]3[C@H](O)C[C@@H]4C[C@H](O)CC[C@]4(C)[C@H]3C[C@H](O)[C@]12C`, the result with Neuron [1], with Neuron [2], with Neuron [3] and in the test on Neuron [4] was inactive.
For `C[C@H](CC[C@H](O)C(C)(C)O)[C@H]1CC[C@H]2[C@@H]3C(=O)C=C4C[C@@H](O)CC[C@]4(C)[C@H]3CC[C@]12C`, the Activity in [11] was 4%; in [5], 58%; in [12] it was 15%; in test [13] it was 37%; in test [14], 24%; in test [15], 4%. For the same compound, the Activity was found to be 15% in test [6]; 3% in test [16]; 26% in [17]; 21% in test [7]; 2% in test [18]; 49% in test [8]. The Activity in test [19] turned out to be 3%; in test [20], 7%; in test [9] it was 6%; in test [21], 5%; in [22] it was 45%.
On to `CC(C)C(=O)CC[C@@H](C)[C@H]1CC[C@H]2[C@@H]3C(=O)C=C4C=CCC[C@]4(C)[C@H]3CC[C@]12C`, for which the Activity in test [5] was found to be 6%; in test [6], 13%; in test [7], 11%; in test [8], 1%; in test [9], 19%.
